Here are results for seven compounds from US8993320B2, “Culture method to obtain and maintain a pure or enriched population of mammalian neural stem cells and/or neural/progenitor cells that are prone to differentiate into oligodendrocyte-lineage cells in vitro” (priority 2011, dated 2015).

What all share (type): cell-based, human
Experiment [1] has as its system HFSC cells. The experiment is described as follows: Expansion of HFSC cells with growth factors and supplements (live cell count). The settings on record: for effect on expansion rate: either 50 μM 1-thioglycerol added or PDGF-AA increased to 100 ng/ml (not both), with 10 ng/ml bFGF+10 ng/ml IGF-1, passage 5; for effect on cell status (vacuoles, cell number): supplement to DMEM/F12 with glutamine, pyruvate, B27, 1% NEAA, 1 mM N-acetyl-cysteine, 55 μM β-mercaptoethanol, data not shown; for concentration at which expansion rate / response is saturated: established cell line #2b. The procedure:
FIG. 4 illustrates the expansion rate of HFSC cells (cell line #2b) in the presence of different combinations of growth factors: (1): 20 ng/ml PDGF-AA+10 ng/ml bFGF; (2): 20 ng/ml PDGF-AA+10 ng/ml bFGF+5 ng/ml NT-3; (3): 20 ng/ml PDGF-AA+10 ng/ml bFGF+10 ng/ml IGF-1; (4): 20 ng/ml PDGF-AA+10 ng/ml bFGF+5 ng/ml NT-3+10 ng/ml IGF-1. The cells were harvested at day 11 of passage 3 (P3D11) and number of live cells in each condition was counted. Then, they were passaged in the same condition that was used at passage 3 at the same cell density. The cells were harvested at day 8 of passage 4 (P4D8) and number of live cells in each condition was counted (these cells were harvested before they became sub-confluent because they started forming spheres). […] Condition (3) was effective at both passages. FIG. 5 illustrates the effects of high dose of PDGF-AA (100 ng/ml) and 1-thioglycerol on the proliferation of HFSC cells (cell line #2b); cultured in HFSCM1 medium in the presence of the following combinations of growth factors: (1): 20 ng/ml PDGF-AA+10 ng/ml bFGF+10 ng/ml IGF-1; (2): 20 ng/ml PDGF-AA+10 ng/ml bFGF+10 ng/ml IGF-1+50 μM 1-thioglycerol; (3): 100 ng/ml PDGF-AA+10 ng/ml bFGF+10 ng/ml IGF-1; (4): 100 ng/ml PDGF-AA+10 ng/ml bFGF+10 ng/ml IGF-1+50 μM 1-thioglycerol; (5): 100 ng/ml PDGF-AA+10 ng/ml bFGF+50 μM 1-thioglycerol. The cells were harvested at day 7 of passage 5 (these cells were harvested before they became sub-confluent because they started forming spheres as they did at passage 4) and number of live cells in each condition was counted. The combination of 20 ng/ml PDGF-AA+10 ng/ml bFGF was also tested, but the recovered cell number was too low to evaluate (less than 1×10^4 cells which was under the countable range) and its data was eliminated from this figure. The condition (1) could expand cells at passage 3 but couldn't expand cells at passage 5. […] When the addition of 50 μM 1-thioglycerol and the increase of PDGF-AA concentration to 100 ng/ml were combined [condition (4)], the cell expansion rate improved dramatically and the cells could be expanded successfully. […] The cell “expansion rate” refers to the cell number on a particular date divided by the initial cell number at the start of culture. Human 15-week fetal spinal cord was dissected from the spinal column, with the meninges and peripheral nerves removed. The tissue then was dissociated with Accutase and washed and cells obtained from human fetal spinal cord were placed in a culture vessel containing the following growth medium: DMEM/F12 containing 2.5 mM glutamine and 15 mM HEPES, 2% B27 supplement (Invitrogen™), 1% NEAA, 1.5 mM pyruvate (Invitrogen™), 55 μM β-mercaptoethanol (Invitrogen™), 1 mM N-acetyl-L-cysteine (Sigma-Aldrich™), 20 ng/ml PDGF-AA (R&D SYSTEMS™, Inc., Minneapolis, Minn., USA) and 10 ng/ml bFGF (R&D SYSTEMS™). Cells were then placed in an incubator maintained at 37° C., 5% O2, and 5% CO2. bFGF (10 ng/ml) was added daily to the culture medium. Medium was changed every 2-3 days during passage. Based on the preliminary experiments, growing cells were not so many in the presence of PDGF-AA and bFGF and many cells stopped proliferating or died within a few weeks. […] To remove cells that are not responsive to PDGF-AA and bFGF, cells were cultured in an ultra-low adhesion culture plate ([…] Inc., Corning, N.Y., USA). […] Spheres were collected at lower speed of centrifugation (300 rpm for collecting spheres vs. 1,000 rpm for collecting single cells) for medium change and passaging. After 9 days, cells were harvested and passaged onto poly-ornithine-coated culture vessels. After this period, cells were passaged every 7-14 days. […] In addition, the cells began to appear unhealthy, forming vacuoles in their cytoplasm. As mentioned in Example 1, inclusion of PDGF-AA and bFGF in the culture medium supported adequate growth of the HFSC cells initially, but the proliferation rate slowed after 2 passages. […]

Experiment [2] concerns HFSC cells. The experiment is described as follows: Differentiation of HFSC cells in serum-free medium (GD3/O4 staining, morphology). The procedure:
FIG. 7 depicts spontaneous differentiation of HFSC cells in serum-free medium in slides A-F. Slides A and B are phase contrast images taken with an inverted microscope showing the morphological change of HFSC cells (cell line #2b) at passage 12, day 9 (FIG. 7, slides A & B) after being cultured in HFSCM1 medium supplemented with 20 ng/ml PDGF-AA, 10 ng/ml bFGF, 10 ng/ml IGF-1 and 50 μM 1-thioglycerol (FIG. 7, slide A) or without 1-thioglycerol (FIG. 7, slide B). HFSC cells were differentiated spontaneously without replenishing bFGF between changing medium. Even in the same condition, HFSC cells didn't differentiate if bFGF was replenished everyday and seemed to grow slowly. […] The ratio of oligodendrocyte progenitor cells and other cell types to differentiated cells (oligodendrocyte progenitor cells plus other cell types) were calculated and shown in FIG. 15, slide E. Oligodendrocyte progenitor cell was 99.1%±0.56% of differentiated cells whereas other cell types were 0.9%±0.56% of differentiated cells. […]

Experiment [3] has as its system HFSC cells. The experiment is described as follows: Expansion of HFSC cells with growth factors and supplements (live cell count). The settings on record: higher concentration of IGF-1 (50-500 ng/ml).

Consider `OCC(O)CS` (stereo not shown) [1-thioglycerol, reference compound], for which the “effect on expansion rate” value with HFSC cells [1] is “very little positive effect”. On to `CC(=O)N[C@@H](CS)C(=O)O` [N-acetyl-cysteine, reference compound], for which the “effect on cell status (vacuoles, cell number)” value in the experiment on HFSC cells [1] is on record as “seemed to improve the cells' status”. For the compound `Nc1ncnc2c1nc(Sc1ccc(Cl)cc1)n2[C@@H]1O[C@@H]2COP(=O)(O)O[C@H]2[C@H]1O` [pCPT-cAMP, reference compound], the induction of differentiation entry with HFSC cells [2] (100 μM, high density (3×10^4 cells/cm^2)) is “could induce differentiation”. Turning to `OCCS` [β-mercaptoethanol, reference compound], the “effect on cell status (vacuoles, cell number)” value in the experiment on HFSC cells [1] is “seemed to improve the cells' status”. On to basic fibroblast growth factor [bFGF], for which the “concentration at which expansion rate / response is saturated” value with HFSC cells [1] came to 20 ng/mL.

Consider insulin-like growth factor-1 [IGF-1], for which, in the experiment on HFSC cells [1], the “concentration at which expansion rate / response is saturated” value was 40 ng/mL. The differentiated cells seen result with HFSC cells [3] is recorded as “around 1%”.

For “platelet derived growth factor-AA [PDGF-AA]”, in the experiment on HFSC cells [1], the “effect on expansion rate” value is given as “very little positive effect” and the “concentration at which expansion rate / response is saturated” value fell in the range of 10 to 20 ng/mL. Besides, the “effect on spontaneous differentiation” value with HFSC cells [2] (40 ng/ml or higher PDGF-AA) is listed as “blocked to differentiate”.
